Source: PubChem BioAssay (NCI)
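Interpolation was linear, between the two tested concentrations surrounding the appropriate level; five concentrations were tested over 48 hours in 96-well plates. GI50 = concentration required for 50% inhibition of growth. The concentration for full growth arrest is given as TGI.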

Experiments:
Test in all cases: NCI tumour cell line growth inhibition, 48 h
[1] = test system: HS 578T breast
[2] = test system: SK-OV-3 ovarian
[3] = test system: CAKI-1 renal
[4] = test system: M14 melanoma
[5] = test system: HCC-2998 colon
[6] = test system: A549 NSCLC
[7] = test system: HT29 colon
[8] = test system: SF-539 CNS
[9] = test system: MALME-3M melanoma
[10] = test system: MCF7 breast
[11] = test system: HCT-116 colon
[12] = test system: PC-3 prostate
[13] = test system: BT-549 breast
[14] = test system: UACC-257 melanoma
[15] = test system: K-562 leukemia
[16] = test system: T-47D breast
[17] = test system: NCI-H23 lung
[18] = test system: MDA-MB-435
[19] = test system: 786-0 renal
[20] = test system: NCI-H522 lung
[21] = test system: SNB-75 CNS
[22] = test system: OVCAR-4 ovarian
[23] = test system: HOP-92 NSCLC
[24] = test system: RPMI-8226 leukemia
[25] = test system: MOLT-4 leukemia
[26] = test system: A498 renal
[27] = test system: NCI-H226 lung
[28] = test system: NCI-H460 lung
[29] = test system: SF-268 CNS
[30] = test system: OVCAR-5 ovarian
[31] = test system: SW-620 colon
[32] = test system: NCI/ADR-RES ovarian
[33] = test system: OVCAR-8 ovarian
[34] = test system: RXF 393 renal
[35] = test system: COLO 205 colon
[36] = test system: SF-295 CNS
[37] = test system: HL-60(TB) leukemia
[38] = test system: MDA-MB-231 breast
[39] = test system: SK-MEL-5 melanoma
[40] = test system: HCT-15 colon
[41] = test system: ACHN renal
[42] = test system: HOP-62 NSCLC
[43] = test system: SK-MEL-28 melanoma
[44] = test system: SN12C renal
[45] = test system: SK-MEL-2 melanoma
[46] = test system: UACC-62 melanoma
[47] = test system: KM12 colon
[48] = test system: OVCAR-3 ovarian
[49] = test system: UO-31 renal
[50] = test system: TK-10 renal
[51] = test system: SNB-19 CNS
[52] = test system: IGROV1 ovarian
[53] = test system: DU-145 prostate
[54] = test system: SR leukemia
[55] = test system: EKVX NSCLC
[56] = test system: U251 CNS
[57] = test system: CCRF-CEM leukemia
[58] = test system: LOX IMVI melanoma

CCOC(=O)c1[nH]c2c(c1C)-c1[nH]c(=O)c(S(=O)(=O)c3ccccc3)cc1SC2
GI50 [1]: 24.7 µM | TGI [1]: 94 µM | GI50 [2]: 56.6 µM | TGI [2]: > 100 µM | GI50 [3]: 54.1 µM | TGI [3]: > 100 µM | GI50 [4]: 38.8 µM | TGI [4]: > 100 µM | GI50 [5]: > 100 µM | TGI [5]: > 100 µM | GI50 [6]: 41.3 µM | TGI [6]: > 100 µM | GI50 [7]: 40.7 µM | TGI [7]: > 100 µM | GI50 [8]: 30.6 µM | TGI [8]: > 100 µM | GI50 [9]: 36.4 µM | TGI [9]: > 100 µM | GI50 [10]: 40.4 µM | TGI [10]: > 100 µM | GI50 [11]: 36.1 µM | TGI [11]: > 100 µM | GI50 [12]: 17.7 µM | TGI [12]: > 100 µM | GI50 [13]: 36.5 µM | TGI [13]: > 100 µM | GI50 [14]: 67.1 µM | TGI [14]: > 100 µM | GI50 [15]: 23.2 µM | TGI [15]: > 100 µM | GI50 [16]: 15.4 µM | TGI [16]: 58.9 µM | GI50 [17]: 41.1 µM | TGI [17]: > 100 µM | GI50 [18]: 42.8 µM | TGI [18]: > 100 µM | GI50 [19]: 46.3 µM | TGI [19]: > 100 µM | GI50 [20]: 28.7 µM | TGI [20]: > 100 µM | GI50 [21]: 24.8 µM | TGI [21]: 86.6 µM | GI50 [22]: 28.8 µM | TGI [22]: 86.5 µM | GI50 [23]: 0.504 µM | TGI [23]: 61.1 µM | GI50 [24]: 44 µM | TGI [24]: > 100 µM | GI50 [25]: 15.7 µM | TGI [25]: > 100 µM | GI50 [26]: 1.68 µM | TGI [26]: > 100 µM | GI50 [27]: 64.4 µM | TGI [27]: > 100 µM | GI50 [28]: 34.6 µM | TGI [28]: > 100 µM | GI50 [29]: 34.5 µM | TGI [29]: > 100 µM | GI50 [30]: > 100 µM | TGI [30]: > 100 µM | GI50 [31]: 57.9 µM | TGI [31]: > 100 µM | GI50 [32]: 52.9 µM | TGI [32]: > 100 µM | GI50 [33]: 37.7 µM | TGI [33]: > 100 µM | GI50 [34]: 28.4 µM | TGI [34]: > 100 µM | GI50 [35]: 22.5 µM | TGI [35]: 46.4 µM | GI50 [36]: 28.1 µM | TGI [36]: > 100 µM | GI50 [37]: 23.2 µM | TGI [37]: > 100 µM | GI50 [38]: 34.9 µM | TGI [38]: > 100 µM | GI50 [39]: 37.4 µM | TGI [39]: > 100 µM | GI50 [40]: > 100 µM | TGI [40]: > 100 µM | GI50 [41]: 47.3 µM | TGI [41]: > 100 µM | GI50 [42]: 44.3 µM | TGI [42]: > 100 µM | GI50 [43]: 70 µM | TGI [43]: > 100 µM | GI50 [44]: 93.6 µM | TGI [44]: > 100 µM | GI50 [45]: 92.3 µM | TGI [45]: > 100 µM | GI50 [46]: 46.7 µM | TGI [46]: > 100 µM | GI50 [47]: 38.5 µM | TGI [47]: > 100 µM | GI50 [48]: 31.6 µM | TGI [48]: > 100 µM | GI50 [49]: > 100 µM | TGI [49]: > 100 µM | GI50 [50]: 42.6 µM | TGI [50]: > 100 µM | GI50 [51]: 81.1 µM | TGI [51]: > 100 µM | GI50 [52]: 21.3 µM | TGI [52]: > 100 µM | GI50 [53]: 30.6 µM | TGI [53]: > 100 µM | GI50 [54]: 30.3 µM | TGI [54]: > 100 µM | GI50 [55]: 38.8 µM | TGI [55]: > 100 µM | GI50 [56]: 31.1 µM | TGI [56]: > 100 µM | GI50 [57]: 57.8 µM | TGI [57]: > 100 µM

CC1Cc2c(N(C)C)ncnc2N(C)c2ccc(Cl)cc21 (centres undefined)
GI50 [1]: 3.08 µM | TGI [1]: > 100 µM | GI50 [2]: 4.93 µM | TGI [2]: 72.1 µM | GI50 [3]: 3.12 µM | TGI [3]: > 100 µM | GI50 [4]: 2.39 µM | TGI [4]: > 100 µM | GI50 [5]: 6.9 µM | TGI [5]: 37.3 µM | GI50 [6]: 10.7 µM | TGI [6]: > 100 µM | GI50 [7]: 3.22 µM | TGI [7]: 37 µM | GI50 [8]: 2.93 µM | TGI [8]: 12.2 µM | GI50 [9]: 3.73 µM | TGI [9]: 60 µM | GI50 [10]: 1.51 µM | TGI [10]: > 100 µM | GI50 [11]: 3.48 µM | TGI [11]: 23.6 µM | GI50 [12]: 3.41 µM | TGI [12]: 81.6 µM | GI50 [13]: 6.63 µM | TGI [13]: 32.1 µM | GI50 [15]: 0.781 µM | TGI [15]: > 100 µM | GI50 [16]: 6.56 µM | TGI [16]: > 100 µM | GI50 [17]: 5.74 µM | TGI [17]: > 100 µM | GI50 [18]: 0.397 µM | TGI [18]: > 100 µM | GI50 [19]: 8.26 µM | TGI [19]: 29.3 µM | GI50 [20]: 2.79 µM | TGI [20]: 35.3 µM | GI50 [21]: 2.02 µM | TGI [21]: 8.52 µM | GI50 [22]: 9.76 µM | TGI [22]: > 100 µM | GI50 [58]: 6 µM | TGI [58]: 27.2 µM | GI50 [23]: 11 µM | TGI [23]: 69.6 µM | GI50 [24]: 3.53 µM | TGI [24]: 17.3 µM | GI50 [25]: 3.52 µM | TGI [25]: 27.3 µM | GI50 [26]: 3.53 µM | TGI [26]: 19.2 µM | GI50 [27]: 11 µM | TGI [27]: 57.8 µM | GI50 [28]: 3.86 µM | TGI [28]: 46.6 µM | GI50 [29]: 8.09 µM | TGI [29]: > 100 µM | GI50 [31]: 3.35 µM | TGI [31]: > 100 µM | GI50 [32]: 2.4 µM | TGI [32]: 23.9 µM | GI50 [33]: 9.17 µM | TGI [33]: > 100 µM | GI50 [34]: 2.03 µM | TGI [34]: 6.98 µM | GI50 [35]: 2.44 µM | TGI [35]: 6.55 µM | GI50 [36]: 1.98 µM | TGI [36]: 9.85 µM | GI50 [37]: 2.81 µM | TGI [37]: 15.8 µM | GI50 [38]: 5.84 µM | TGI [38]: 55.4 µM | GI50 [39]: 3.65 µM | TGI [39]: 13.8 µM | GI50 [40]: 2.83 µM | TGI [40]: 85.9 µM | GI50 [41]: 7.59 µM | TGI [41]: > 100 µM | GI50 [42]: 4.81 µM | TGI [42]: 73.4 µM | GI50 [43]: 10.8 µM | TGI [43]: > 100 µM | GI50 [44]: 10.2 µM | TGI [44]: 37.1 µM | GI50 [45]: 5.88 µM | TGI [45]: 57.3 µM | GI50 [47]: 3.15 µM | TGI [47]: > 100 µM | GI50 [48]: 2.51 µM | TGI [48]: 8.88 µM | GI50 [49]: 4.4 µM | TGI [49]: 72.4 µM | GI50 [50]: 14.8 µM | TGI [50]: > 100 µM | GI50 [51]: 5.81 µM | TGI [51]: > 100 µM | GI50 [52]: 8.48 µM | TGI [52]: > 100 µM | GI50 [53]: 5.49 µM | TGI [53]: > 100 µM | GI50 [54]: 0.463 µM | TGI [54]: 20.3 µM | GI50 [55]: 2.77 µM | TGI [55]: > 100 µM | GI50 [56]: 4.99 µM | TGI [56]: 29.1 µM | GI50 [57]: 2.92 µM | TGI [57]: 18 µM
